Laboratory results from patent US20040087498A1, “Modified factor VII” (Novo Nordisk Health Care AG, priority 1991, published 2004).

Legend:
[1] = system: tissue factor preparation (saline extract of baboon brain); experiment: Clotting assay in normal baboon plasma with baboon brain tissue factor; assay type: biochemical
Method: The samples were mixed and briefly incubated at 37° C. The samples were added to an Electra 800 Automatic Coagulation Timer (Medical Laboratories Automation, Pleasantville, N.Y.). […] A tissue factor preparation was made as a saline extract of baboon brain from freshly frozen brain tissue and characterized for its ability to initiate coagulation in baboon plasma. A concentration of tissue factor that gave a clotting time of about 40 seconds was selected.

[2] = system: vascular lesion formation; experiment: Balloon brachial artery model in baboons; assay type: in vivo; conditions: baboon brachial artery balloon model, preliminary studies
Method: Under halothane anesthesia and sterile operating conditions, animals labeled with autologous ^111In-platelets received intravenous infusions of DEGR-FVIIa using the tether system for continuous intravenous administration (initial bolus injection of 1 mg/kg followed by continuous intravenous infusion of 50 μg/kg/hr. The animals received surgical carotid endarterectomy, bilateral brachial artery or bilateral femoral artery Fogarty balloon catheter angioplasties.
The DEGR-FVIIa was administered for 7 or 30 days by continuous infusions via venous catheter using the tether system. […]
For morphometric analysis of VLF, sections embedded in paraffin and stained for connective tissue components (collagen, elastin) and with hematoxylin-eosin, were evaluated using a Zeiss Photoscope coupled with image analysis system (Thomas Optical Measurement Systems, Columbus, Ga.) consisting of high resolution (580 lines) CCD microscope camera coupled to a high resolution (700 lines) monitor, an IBM 386 chip, 80 MB computer with high resolution graphics digitablet for image acquisition and storage. Quantitative image analysis was performed using a morphometric software driver (Optimas, Bioscan, Inc., Edmonds, Wash.). Arterial cross-sections were analyzed with respect to the total area of neointimal proliferative lesion and corresponding area of arterial media. […]

[3] = system: femoral artery lumen; experiment: Angiographic luminal diameter after balloon angioplasty in atherosclerotic rabbits; assay type: in vivo, rabbit
Method: The test drug delivery for the animals consisted of an initial bolus injection immediately prior to balloon angioplasty, followed by a continuous systemic infusion by osmotic pump via the internal jugular vein. The duration of the drug infusion was 3 days. The control animals received heparin, 150 U/kg IV bolus, prior to balloon angioplasty followed by saline infusion. The DEGR-FVIIa treated animals received a 1 mg/kg bolus injection followed by 50 μg/kg/hr infusion.
For the placement of the osmotic pumps for continuous systemic infusion, anesthesia was induced in the animals as described above, and maintained throughout the procedure with additional IM injections of ketamine and Xylazine. Through a midline neck incision, the right internal jugular vein was isolated by blunt dissection and the distal end ligated. A silastic tube (PE-160) was introduced into the right internal jugular vein. A subcutanecus tunnel was created to pass the silastic tube. This tube was connected with the osmotic pump. The osmotic pump was implanted subcutaneously in the back of the rabbit. The right common carotid artery was isolated by blunt dissection and the distal end ligated. Via an arteriotomy, a 5F introducer was placed and advanced to the junction of the aortic arch. Blood was drawn for determination of hemostatic parameters, drugs and cholesterol levels. Twenty milligrams of xylocain was injected intraarterially. A control aortoilibfemoral angiogram was performed via a 5F Berman catheter positioned above the aortic bifurcation using 3-4 ml renographin injected over 3 seconds by hand.
Following balloon dilatation, the angioplasty catheter was withdrawn and the Berman catheter reintroduced to a position 3 cm above the aortic bifurcation. To minimize spasm 20 mg of lidocaine was given intraarterially. A post procedure angiogram was performed as described above. A 1 cm grid was positioned at the level of the femoral artery to calculate the actual diameter. The catheter was then removed. The right carotid artery was ligated with 3-0 silk and the wound sutured by layers. […]

[4] = system: platelet accumulation at sites of arterial thrombosis; experiment: Platelet accumulation on endarterectomized baboon aorta in an extracorporeal shunt; assay type: in vivo
Text: A model of aortic endarterectomy was utilized in baboons, essentially as described by Lumsden et al. (Blood 81:1762-1770 (1993)). A section of baboon aorta 1-2 cm in length was removed, inverted and scraped to remove the intima of the artery and approximately 50% of the media. The artery was reverted back to its correct orientation, cannulated on both ends and placed into an extracorporeal shunt in a baboon, thereby exposing the mechanically injured artery to baboon blood via the shunt. Just prior to opening of the shunt to the circulating blood, ^111In-labeled autologous platelets were injected intravenously into the animal. The level of platelet accumulation at the site of the injured artery was determined by real-time gamma camera imaging.
The injured arteries were measured continuously for 60 minutes. […] At a 1.0 mg/kg bolus injection, approximately 90% of platelet accumulation was inhibited at 1 hour post drug administration.

## DEGR-Factor VIIa: Recombinant human Factor VIIa with its active site derivatized by Dansyl-L-Glu-Gly-Arg-chloromethyl Ketone (DEGRck)
[1]; 0.5 μg/ml plasma
  Clotting time: 46.2 s
[1]; 1.0 μg/ml plasma
  Clotting time: 50.8 s
[1]; 2.5 μg/ml plasma
  Clotting time: 64.5 s
[1]; 5.0 μg/ml plasma
  Clotting time: 108.1 s
[1]; 10.0 μg/ml plasma
  Clotting time: 158.4 s
[2]
  benefit of therapy: no measurable benefit
[3]; 21 Day Measurement
  Mean MLD: 1.393
[3]; Post-PTCA Measurement
  Mean MLD: 1.323
[3]; Pre-PTCA Measurement
  Mean MLD: 1.283
[4]; baboon, 0.005 mg/kg bolus injection
  platelet accumulation: inhibited platelet accumulation
[4]; baboon, 1.0 mg/kg bolus injection, 1 hour post drug administration
  inhibition of platelet accumulation: approximately 90%
[4]; bolus injection, arteries measured over 60 minutes, versus saline-treated controls
  thrombus formation (platelet deposition): significantly inhibited the development of platelet-rich thrombi
